Laboratory results reported in ChEMBL document CHEMBL1795345, “Significant enhancement in radical-scavenging activity of curcuminoids conferred by acetoxy substituent at the central methylene carbon” (Bioorg Med Chem, 2011).
pEC50: −log10 of the molar value.

Tests used:
[1] = system: Radical scavenging activity; assay: Antioxidant activity assessed as DPPH radical scavenging activity; assay type: functional
[2] = system: Radical scavenging activity; assay: Antioxidant activity assessed as reduction in compound induced DPPH radical scavenging activity at 100 uM in presence of 100 mM acetic acid measured 30 mins after mixing compound with DPPH; assay type: functional; set-up: scale not given: the % may be the effect or the level left

Structure (SMILES) | pEC50 [1] | Activity [2] [%]
O=C1O[C@H]([C@@H](O)CO)C(O)=C1O [ASCORBIC ACID] | 4.80 | –
CO/C(C(=O)/C=C/c1ccc(O)c(OC)c1)=C(O)\C=C\c1ccc(O)c(OC)c1 | 4.52 | –
COc1ccc(/C=C/C(=O)/C(OC(C)=O)=C(O)/C=C/c2ccc(OC)cc2)cc1 | 4.48 | 25
O=C(/C=C/c1ccc(O)cc1)CC(=O)/C=C/c1ccc(O)cc1 [BISDEMETHOXYCURCUMIN] | < 4.00 | –
COc1cc(/C=C/C(=O)/C(OC(C)=O)=C(O)/C=C/c2ccc(O)c(OC)c2)ccc1O | 5.06 | 10
CC(=O)O/C(C(=O)/C=C/c1ccc(O)cc1)=C(O)\C=C\c1ccc(O)cc1 | 4.58 | 13
COc1cc(/C=C/C(=O)/C=C(O)/C=C/c2cc(O)c(O)c(OC)c2)cc(O)c1O | 4.95 | –
COc1cc(/C=C/C(=O)/C(OC(C)=O)=C(O)/C=C/c2cc(O)c(O)c(OC)c2)cc(O)c1O | 5.54 | –
COc1ccc(/C=C/C(=O)/C(OC(C)=O)=C(O)/C=C/c2ccc(OC)c(OC)c2)cc1OC | 4.66 | 25
CC(=O)O/C(C(=O)/C=C/c1ccccc1)=C(O)\C=C\c1ccccc1 | 4.32 | 25
COc1ccc(/C=C/C(=O)/C(C)=C(O)/C=C/c2ccc(OC)c(OC)c2)cc1OC | < 4.00 | –
C=CC/C(C(=O)/C=C/c1ccc(O)c(OC)c1)=C(O)\C=C\c1ccc(O)c(OC)c1 | 4.63 | –
COc1cc(/C=C/C(=O)/C(OC(C)=O)=C(O)/C=C/c2cc(OC)c(OC)c(OC)c2)cc(OC)c1OC | 4.56 | 25
CO/C(C(=O)/C=C/c1ccc(OC)c(OC)c1)=C(O)\C=C\c1ccc(OC)c(OC)c1 | 4.12 | –
O=C(/C=C(O)/C=C/c1ccccc1)/C=C/c1ccccc1 | < 4.00 | –
COc1ccc(/C=C/C(=O)/C=C(O)/C=C/c2ccc(OC)cc2)cc1 | < 4.00 | –
C=CC/C(C(=O)/C=C/c1ccc(OC)c(OC)c1)=C(O)\C=C\c1ccc(OC)c(OC)c1 | < 4.00 | –
COc1ccc(/C=C/C(=O)/C=C(O)/C=C/c2ccc(OC)c(OC)c2)cc1OC [DIMETHYLCURCUMIN] | < 4.00 | –
CCOC(=S)S/C(C(=O)/C=C/c1ccc(O)c(OC)c1)=C(O)\C=C\c1ccc(O)c(OC)c1 | 4.53 | –
CCOC(=S)S/C(C(=O)/C=C/c1ccc(OC)c(OC)c1)=C(O)\C=C\c1ccc(OC)c(OC)c1 | < 4.00 | –
COc1cc(/C=C/C(=O)CC(=O)/C=C/c2ccc(O)c(OC)c2)ccc1O [CURCUMIN] | 4.65 | 10
COc1cc(/C=C/C(=O)/C(C)=C(O)/C=C/c2ccc(O)c(OC)c2)ccc1O | 4.63 | –
